According to ChEMBL document CHEMBL1201862, “PubChem BioAssay data set” (2004):
Active and inactive are the calls of the source.

What was measured:
[1] = target: T1, Streptokinase A (Streptococcus pyogenes serotype M1, UniProt P10520); test: S. pyogenes streptokinase expression inhibitors, potency, dose response, plasminogen activation absorbance, OD405 (AID 1914); type: functional, Streptococcus pyogenes M1 GAS;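 further: secreted streptokinase activity via plasminogen activation per viability signal from cell pellet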
T1 sequence (P10520 whole entry): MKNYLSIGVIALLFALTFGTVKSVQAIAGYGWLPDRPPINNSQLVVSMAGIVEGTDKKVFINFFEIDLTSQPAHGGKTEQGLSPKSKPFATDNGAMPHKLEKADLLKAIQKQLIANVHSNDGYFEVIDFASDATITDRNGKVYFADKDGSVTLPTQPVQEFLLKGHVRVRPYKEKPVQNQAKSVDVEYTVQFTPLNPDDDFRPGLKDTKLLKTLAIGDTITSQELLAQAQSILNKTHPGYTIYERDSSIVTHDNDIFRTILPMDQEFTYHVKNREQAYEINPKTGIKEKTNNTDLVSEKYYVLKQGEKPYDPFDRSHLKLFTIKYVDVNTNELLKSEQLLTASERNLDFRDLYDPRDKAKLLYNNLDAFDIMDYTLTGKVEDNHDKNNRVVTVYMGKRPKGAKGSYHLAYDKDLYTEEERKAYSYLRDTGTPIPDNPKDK

[2] = target: Low molecular weight phosphotyrosine protein phosphatase (Homo sapiens, UniProt P24666); type: functional; conditions: read-out: IC50_Mean;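 further: Dose-response confirmation assay measuring inhibition of LMPTP enzyme activity by fluorescence intensity read-out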
Chain of Low molecular weight phosphotyrosine protein phosphatase (P24666 whole entry): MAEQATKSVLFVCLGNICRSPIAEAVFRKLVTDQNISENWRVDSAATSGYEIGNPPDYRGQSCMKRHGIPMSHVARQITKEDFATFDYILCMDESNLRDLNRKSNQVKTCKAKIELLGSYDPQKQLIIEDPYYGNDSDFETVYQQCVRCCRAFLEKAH

[3] = system: Streptococcus; test: Group A Streptococcus viability loss, dose response, counter-screen for streptokinase expression inhibitor project, luminescence, BacTiterGlo (AID 1915); type: functional, organism-based;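 further: potency for reduction of bacterial viability or growth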
[4] = system: Streptococcus sp. 'group A'; test: growth inhibition of control SK(-) GAS strain, dose response, counter-screen for streptokinase expression inhibitor project, luminescence, kanamycin, BacTiterGlo, confirmation (AID 1900); type: functional, organism-based
[5] = target: Nuclear receptor subfamily 5 group A member 2 (Homo sapiens, UniProt O00482); type: functional, cell-based;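 further: HEK293T cells transfected with LRH-1 and a StAR promoter luciferase reporter; potency for inhibitors that lower LRH-1 driven reporter light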
Chain of Nuclear receptor subfamily 5 group A member 2 (O00482 whole entry): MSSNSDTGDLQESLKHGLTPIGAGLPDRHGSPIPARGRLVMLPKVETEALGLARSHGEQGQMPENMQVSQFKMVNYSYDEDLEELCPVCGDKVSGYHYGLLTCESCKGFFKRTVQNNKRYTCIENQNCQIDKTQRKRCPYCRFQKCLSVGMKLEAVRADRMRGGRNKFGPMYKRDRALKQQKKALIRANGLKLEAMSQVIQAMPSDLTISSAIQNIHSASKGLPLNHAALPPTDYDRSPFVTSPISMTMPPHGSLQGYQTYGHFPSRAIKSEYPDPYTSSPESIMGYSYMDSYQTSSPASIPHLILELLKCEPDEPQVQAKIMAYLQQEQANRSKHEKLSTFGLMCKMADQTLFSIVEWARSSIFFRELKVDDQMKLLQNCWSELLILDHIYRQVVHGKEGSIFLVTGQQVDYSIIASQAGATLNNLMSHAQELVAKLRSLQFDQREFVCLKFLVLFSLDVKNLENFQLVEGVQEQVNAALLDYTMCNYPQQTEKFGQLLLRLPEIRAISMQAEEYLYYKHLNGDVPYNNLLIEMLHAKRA

[6] = StAR promoter reporter inhibition counter-screen, dose response, counter-screen for LRH-1 inverse agonist project, cell-based, luminescence, luciferase reporter (AID 651969); type: functional
[7] = target: Steroidogenic factor 1 (Homo sapiens, UniProt Q13285); test: Counterscreen for inverse agonists of the liver receptor homolog-1 (LRH-1; NR5A2): Luminescence-based cell-based high throughput dose response assay to identify inverse agonists of the Steroidogenic Factor 1 Nuclear Receptor (SF1; NR5A1).; type: functional
Chain of Steroidogenic factor 1 (Q13285 whole entry): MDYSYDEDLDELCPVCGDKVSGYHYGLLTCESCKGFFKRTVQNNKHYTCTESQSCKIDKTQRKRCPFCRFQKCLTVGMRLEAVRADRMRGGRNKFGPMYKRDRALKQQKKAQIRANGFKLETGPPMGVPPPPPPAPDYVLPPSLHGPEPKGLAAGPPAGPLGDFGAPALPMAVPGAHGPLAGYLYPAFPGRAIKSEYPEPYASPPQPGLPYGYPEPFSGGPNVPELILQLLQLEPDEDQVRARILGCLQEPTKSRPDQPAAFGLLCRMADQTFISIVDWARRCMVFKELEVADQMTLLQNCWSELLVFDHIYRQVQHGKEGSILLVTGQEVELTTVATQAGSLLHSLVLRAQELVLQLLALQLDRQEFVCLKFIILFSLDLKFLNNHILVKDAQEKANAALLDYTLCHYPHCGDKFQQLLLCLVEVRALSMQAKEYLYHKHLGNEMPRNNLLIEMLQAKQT

[8] = target: Tyrosine-protein phosphatase non-receptor type 11 (Homo sapiens, UniProt Q06124); test: SHP2 phosphatase inhibition, dose response, selectivity assay for STEP inhibitor project, biochemical (AID 602367); type: functional; conditions: read-out: IC50_Mean
Chain of Tyrosine-protein phosphatase non-receptor type 11 (Q06124 whole entry): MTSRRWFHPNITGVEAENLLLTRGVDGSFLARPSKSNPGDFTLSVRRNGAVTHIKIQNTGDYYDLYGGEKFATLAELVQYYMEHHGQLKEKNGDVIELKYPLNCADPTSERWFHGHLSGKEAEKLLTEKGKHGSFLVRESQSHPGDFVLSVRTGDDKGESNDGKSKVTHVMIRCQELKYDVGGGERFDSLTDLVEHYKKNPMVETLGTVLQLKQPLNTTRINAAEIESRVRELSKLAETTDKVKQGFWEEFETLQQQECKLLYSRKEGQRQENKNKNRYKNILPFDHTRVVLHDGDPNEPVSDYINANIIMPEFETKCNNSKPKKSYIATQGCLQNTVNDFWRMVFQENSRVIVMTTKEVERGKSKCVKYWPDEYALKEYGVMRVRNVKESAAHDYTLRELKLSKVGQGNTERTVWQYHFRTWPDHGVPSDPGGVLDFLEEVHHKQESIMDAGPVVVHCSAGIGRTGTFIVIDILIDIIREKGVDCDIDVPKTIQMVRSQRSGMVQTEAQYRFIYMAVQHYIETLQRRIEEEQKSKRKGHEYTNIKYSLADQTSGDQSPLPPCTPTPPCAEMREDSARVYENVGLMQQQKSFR

[9] = target: Tyrosine-protein phosphatase non-receptor type 5 (Homo sapiens, UniProt P54829); test: STEP phosphatase inhibitors, confirmation, biochemical, fluorescence intensity, uHTS hits (AID 602372); type: functional; conditions: read-out: IC50_Mean
Chain of Tyrosine-protein phosphatase non-receptor type 5 (P54829 whole entry): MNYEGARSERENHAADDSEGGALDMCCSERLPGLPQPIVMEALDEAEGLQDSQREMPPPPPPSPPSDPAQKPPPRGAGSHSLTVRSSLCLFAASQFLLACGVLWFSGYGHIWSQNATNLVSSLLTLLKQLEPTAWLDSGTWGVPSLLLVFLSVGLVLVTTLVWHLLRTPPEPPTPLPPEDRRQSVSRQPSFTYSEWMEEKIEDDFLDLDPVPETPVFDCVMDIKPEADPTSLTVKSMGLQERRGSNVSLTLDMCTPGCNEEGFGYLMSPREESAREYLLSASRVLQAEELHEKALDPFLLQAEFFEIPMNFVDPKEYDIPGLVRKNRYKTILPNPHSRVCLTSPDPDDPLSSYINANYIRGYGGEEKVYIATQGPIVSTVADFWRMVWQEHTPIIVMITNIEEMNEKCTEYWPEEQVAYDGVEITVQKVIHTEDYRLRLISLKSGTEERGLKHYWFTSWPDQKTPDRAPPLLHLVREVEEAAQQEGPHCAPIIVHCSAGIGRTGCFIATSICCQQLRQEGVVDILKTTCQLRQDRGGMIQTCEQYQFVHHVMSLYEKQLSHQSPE

[10] = target: T2, Tyrosine-protein phosphatase non-receptor type 22 (Homo sapiens, UniProt Q9Y2R2); test: PTPN22 phosphatase inhibition, dose response, selectivity assay for STEP inhibitor project, biochemical (AID 624241); type: functional
T2 sequence (Q9Y2R2 whole entry): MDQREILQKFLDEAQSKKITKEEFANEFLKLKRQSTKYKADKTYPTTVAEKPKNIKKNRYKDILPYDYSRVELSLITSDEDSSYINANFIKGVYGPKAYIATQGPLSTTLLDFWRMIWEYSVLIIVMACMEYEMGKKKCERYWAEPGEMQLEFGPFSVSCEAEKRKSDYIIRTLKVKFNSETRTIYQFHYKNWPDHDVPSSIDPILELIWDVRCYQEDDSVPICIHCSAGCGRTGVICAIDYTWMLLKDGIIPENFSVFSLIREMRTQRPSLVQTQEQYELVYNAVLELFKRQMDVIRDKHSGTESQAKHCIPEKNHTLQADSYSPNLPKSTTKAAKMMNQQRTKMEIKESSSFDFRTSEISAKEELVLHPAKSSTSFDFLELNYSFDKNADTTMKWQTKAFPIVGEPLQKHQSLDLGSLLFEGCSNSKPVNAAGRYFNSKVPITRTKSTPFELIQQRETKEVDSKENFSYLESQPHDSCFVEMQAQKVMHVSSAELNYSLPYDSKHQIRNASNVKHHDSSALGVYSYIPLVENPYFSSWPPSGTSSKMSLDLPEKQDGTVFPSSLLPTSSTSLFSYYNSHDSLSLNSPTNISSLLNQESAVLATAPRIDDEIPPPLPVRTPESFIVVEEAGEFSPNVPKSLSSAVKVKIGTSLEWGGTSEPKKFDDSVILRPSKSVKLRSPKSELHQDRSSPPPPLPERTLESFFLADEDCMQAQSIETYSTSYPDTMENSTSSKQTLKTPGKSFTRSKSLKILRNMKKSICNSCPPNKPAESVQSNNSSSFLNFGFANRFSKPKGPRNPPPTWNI

[11] = target: Dual specificity protein phosphatase 3 (Homo sapiens, UniProt P51452); test: VHR phosphatase inhibition, dose response, selectivity assay for STEP inhibitor project, biochemical (AID 602374); type: functional; conditions: read-out: IC50_Mean
Chain of Dual specificity protein phosphatase 3 (P51452 whole entry): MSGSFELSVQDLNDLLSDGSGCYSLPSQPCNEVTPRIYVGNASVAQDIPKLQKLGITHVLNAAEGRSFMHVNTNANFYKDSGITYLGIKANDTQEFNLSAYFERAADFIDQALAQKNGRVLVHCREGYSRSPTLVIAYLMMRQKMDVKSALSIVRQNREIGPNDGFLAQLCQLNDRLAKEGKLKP

[12] = target: T3, Caspase-3 (Homo sapiens, UniProt P42574); test: Dose-response confirmation of uHTS inhibitor hits of Sentrin-Specific Protease 8 in a Caspase-3 Fluorescence assay.; type: functional
T3 sequence (P42574 whole entry): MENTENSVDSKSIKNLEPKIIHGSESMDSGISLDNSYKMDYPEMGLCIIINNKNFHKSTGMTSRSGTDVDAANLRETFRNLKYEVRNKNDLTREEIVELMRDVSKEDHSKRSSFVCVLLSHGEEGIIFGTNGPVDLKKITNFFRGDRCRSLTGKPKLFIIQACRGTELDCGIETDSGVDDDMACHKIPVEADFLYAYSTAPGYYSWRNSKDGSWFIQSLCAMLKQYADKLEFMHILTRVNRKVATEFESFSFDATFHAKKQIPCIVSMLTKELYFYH

[13] = target: T4, Sentrin-specific protease 8 (Homo sapiens, UniProt Q96LD8); type: functional
T4 sequence (Q96LD8 whole entry): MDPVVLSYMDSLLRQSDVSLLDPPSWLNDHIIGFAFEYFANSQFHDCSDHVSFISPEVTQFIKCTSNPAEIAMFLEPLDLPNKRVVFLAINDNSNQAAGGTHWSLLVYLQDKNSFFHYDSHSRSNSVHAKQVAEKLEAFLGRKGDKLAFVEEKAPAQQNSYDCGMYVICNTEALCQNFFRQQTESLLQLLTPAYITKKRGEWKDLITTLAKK

[14] = target: T4, Sentrin-specific protease 8; type: functional; remark: listed apart in the source

SMILES: CCn1cc(C(=O)O)c(=O)c2cc(F)c(N3CCN(C(=S)NC(=O)c4cc(OC)cc(OC)c4)CC3)cc21
- EC50 [1]: > 150 µM (not active)
- IC50 [2]: 1.47 µM (active)
- EC50 [3]: 30.2 µM (active)
- EC50 [4]: 2.89 µM (active)

SMILES: COc1cc([N+](=O)[O-])ccc1NC(=O)Cn1ccsc1=N
- IC50 [5]: 35.9 µM (inactive)
- IC50 [6]: 35.9 µM (inactive)
- IC50 [7]: 1.95 µM (active)

SMILES: N#CNc1nc(O)cc(=O)[nH]1
- IC50 [8]: 2.2 µM (active)
- IC50 [9]: 7.69 µM (active)
- IC50 [10]: 11.5 µM (active)
- IC50 [11]: 1.24 µM (active)

SMILES: O=C(Cn1nc(Cc2ccncc2)c2ccccc2c1=O)N1CCc2ccccc2C1
- IC50 [12]: 13.3 µM (active)
- IC50 [13]: 6.46 µM (active)
- IC50 [14]: 3.48 µM (active)
